Test results reported in patent US20230011869A1 (Hoffmann-La Roche Inc., priority 2018, published 2023).
Counter-ions that a name gives are not always drawn.

system: Acinetobacter baumannii ATCC17978; experiment: Antimicrobial susceptibility testing: 90% growth inhibitory concentration (IC90) determination, Iso-Sensitest broth; assay type: cell-based; conditions: 90% growth inhibitory concentration, Acinetobacter baumannii ATCC17978, Iso-Sensitest broth, OD 600 nm over 16 h; read-out: ATCC17978 IC90
Protocol: Antimicrobial Susceptibility Testing:
90% Growth Inhibitory Concentration (IC90) Determination
The in vitro antimicrobial activity of the compounds was determined according to the following procedure:
The assay used a 10-points Iso-Sensitest broth medium to measure quantitatively the in vitro activity of the compounds against Acinetobacter baumannii ATCC17978 and Acinetobacter baumannii ATCC17961.
Microtiter plates were incubated at 35±2° C.
Bacterial cell growth was determined with the measurement of optical density at λ=600 nm each 20 minutes over a time course of 16 h. Growth inhibition was calculated during the logarithmic growth of the bacterial cells with determination of the concentration inhibiting 50% (IC50) and 90% (IC90) of the growth.

IC90 [nM]	SMILES
1200	COc1ccc(-c2cnc3c(Nc4ccc(C(=O)N5CCN(C)CC5)c(C)c4)nccn23)cc1 [Example 5, (4-((3-(4-methoxyphenyl)imidazo[1,2-a]pyrazin-8-yl)amino)-2-methylphenyl)(4-methylpiperazin-1-yl)methanone]
410	Cc1cc(Nc2nccn3c(-c4ccc(OC(F)F)cc4)cnc23)ccc1C(=O)N1CCC(N2CCNC2=O)CC1 [Example 9, 1-(1-(4-((3-(4-(difluoromethoxy)phenyl)imidazo[1,2-a]pyrazin-8-yl)amino)-2-methylbenzoyl)piperidin-4-yl)imidazolidin-2-one]
720	Cc1cc(Nc2nccn3c(-c4ccc(OC(F)F)cc4)cnc23)ccc1C(=O)N1CCC(Oc2ncccn2)CC1 [Example 12]
140	COc1ccc(-c2cnc3c(Nc4ccc(C(=O)N5CCC(C(=O)N6CCNCC6)CC5)c(C)c4)nccn23)cc1F [Example 14, (1-(4-((3-(3-fluoro-4-methoxyphenyl)imidazo[1,2-a]pyrazin-8-yl)amino)-2-methylbenzoyl)piperidin-4-yl)(piperazin-1-yl)methanone hydrochloride]
150	Cc1cc(Nc2nccn3c(-c4ccc(OC(F)F)cc4)cnc23)ccc1C(=O)N1CCC(CN)CC1 [Example 18, (4-(aminomethyl)piperidin-1-yl)(4-((3-(4-(difluoromethoxy)phenyl)imidazo[1,2-a]pyrazin-8-yl)amino)-2-methylphenyl)methanone hydrochloride]
1300	COc1ccc(-c2cnc3c(Nc4ccc(C(=O)N5CCN(C)CC5)c(C)c4)nccn23)cc1Cl [Example 22, (4-((3-(3-chloro-4-methoxyphenyl)imidazo[1,2-a]pyrazin-8-yl)amino)-2-methylphenyl)(4-methylpiperazin-1-yl)methanone]
1100	COc1ccc(-c2cnc3c(Nc4ccc(C(=O)N5CCOC(CN(C)C)C5)c(C)c4)nccn23)cc1F (centres unmarked) [Example 23, [2-[(dimethylamino)methyl]morpholin-4-yl]-[4-[[3-(3-fluoro-4-methoxy-phenyl)imidazo[1,2-a]pyrazin-8-yl]amino]-2-methyl-phenyl]methanone;2,2,2-trifluoroacetic acid]
160	COc1ccc(-c2cnc3c(Nc4ccc(C(=O)N5CCN(CCN(C)C)CC5)c(C)c4)nccn23)c(F)c1F [Example 27]
130	CCc1cc(Nc2nccn3c(-c4ccc(OCC#N)c(F)c4F)cnc23)ccc1C(=O)N1CCN(CCN(C)C)CC1 [Example 30, 2-(4-(8-((4-(4-(2-(dimethylamino)ethyl)piperazine-1-carbonyl)-3-ethylphenyl)amino)imidazo[1,2-a]pyrazin-3-yl)-2,3-difluorophenoxy)acetonitrile]

Continued, compound first:

SMILES	IC90 [nM]
Cc1cc(Nc2nccn3c(-c4ccc(OC(F)F)cc4)cnc23)ccc1C(=O)N1CCC(C(N)=O)CC1 [Example 4, 1-(4-((3-(4-(difluoromethoxy)phenyl)imidazo[1,2-a]pyrazin-8-yl)amino)-2-methylbenzoyl)piperidine-4-carboxamide]	120
COc1ccc(-c2cnc3c(Nc4ccc(C(=O)N5CCOCC5)c(C)c4)nccn23)cc1 [Example 6, (4-((3-(4-methoxyphenyl)imidazo[1,2-a]pyrazin-8-yl)amino)-2-methylphenyl)(morpholine)methanone]	350
COc1ccc(-c2cnc3c(Nc4ccc(C(=O)N5CCC(O)CC5)c(C)c4)nccn23)cc1 [Example 7, (4-hydroxypiperidin-1-yl)(4-((3-(4-methoxyphenyl)imidazo[1,2-a]pyrazin-8-yl)amino)-2-methylphenyl)methanone]	660
Cc1cc(Nc2nccn3c(-c4ccc(OC(F)F)cc4)cnc23)ccc1C(=O)N1CCC(n2cncn2)CC1 [Example 8, (4-(1H-1,2,4-triazol-1-yl)piperidin-1-yl)(4-((3-(4-(difluoromethoxy)phenyl)imidazo[1,2-a]pyrazin-8-yl)amino)-2-methylphenyl)methanone]	130
Cc1cc(Nc2nccn3c(-c4ccc(OC(F)F)cc4)cnc23)ccc1C(=O)N1CCCC(C(N)=O)C1 (centres unmarked) [Example 10, 1-(4-((3-(4-(difluoromethoxy)phenyl)imidazo[1,2-a]pyrazin-8-yl)amino)-2-methylbenzoyl)piperidine-3-carboxamide]	1600
CCOC(=O)NC1CCN(C(=O)c2ccc(Nc3nccn4c(-c5ccc(OC(F)F)cc5)cnc34)cc2C)CC1 [Example 11, ethyl (1-(4-((3-(4-(difluoromethoxy)phenyl)imidazo[1,2-a]pyrazin-8-yl)amino)-2-methylbenzoyl)piperidin-4-yl)carbamate]	580
Cc1cc(Nc2nccn3c(-c4ccc(OC(F)F)cc4)cnc23)ccc1C(=O)N1CCC(c2nncn2C)CC1 [Example 13, (4-((3-(4-(difluoromethoxy)phenyl)imidazo[1,2-a]pyrazin-8-yl)amino)-2-methylphenyl)(4-(4-methyl-4H-1,2,4-triazol-3-yl)piperidin-1-yl)methanone]	130
CNC(=O)C1CCN(C(=O)c2ccc(Nc3nccn4c(-c5ccc(OC(F)F)cc5)cnc34)cc2C)CC1 [Example 15, 1-(4-((3-(4-(difluoromethoxy)phenyl)imidazo[1,2-a]pyrazin-8-yl)amino)-2-methylbenzoyl)-N-methylpiperidine-4-carboxamide]	150
Cc1cc(Nc2nccn3c(-c4ccc(OC(F)F)cc4)cnc23)ccc1C(=O)N1CCC(Cn2cccn2)CC1 [Example 16, (4-((1H-pyrazol-1-yl)methyl)piperidin-1-yl)(4-((3-(4-(difluoromethoxy)phenyl)imidazo[1,2-a]pyrazin-8-yl)amino)-2-methylphenyl)methanone]	930
Cc1cc(Nc2nccn3c(-c4ccc(OC(F)F)cc4)cnc23)ccc1C(=O)N1CCC2(CC1)CNCCO2 [Example 17, (4-((3-(4-(difluoromethoxy)phenyl)imidazo[1,2-a]pyrazin-8-yl)amino)-2-methylphenyl)(1-oxa-4,9-diazaspiro[5.5]undecan-9-yl)methanone]	1300
Cc1cc(Nc2nccn3c(-c4ccc(OC(F)F)cc4)cnc23)ccc1C(=O)N1CCC(C2CNC2)CC1 [Example 20, (4-(azetidin-3-yl)piperidin-1-yl)(4-((3-(4-(difluoromethoxy)phenyl)imidazo[1,2-a]pyrazin-8-yl)amino)-2-methylphenyl)methanone hydrochloride]	160
COc1ccc(-c2cnc3c(Nc4ccc(C(=O)N5CCOCC5)c(C)c4)nccn23)cc1Cl [Example 21, (4-((3-(3-chloro-4-methoxyphenyl)imidazo[1,2-a]pyrazin-8-yl)amino)-2-methylphenyl)(morpholino)methanone]	240
Cc1cc(Nc2nccn3c(-c4ccc(OC(F)F)cc4)cnc23)ccc1C(=O)N1CCN(CCN)CC1 [Example 24, [4-(2-aminoethyl)piperazin-1-yl]-[4-[[3-[4-(difluoromethoxy)phenyl]imidazo[1,2-a]pyrazin-8-yl]amino]-2-methyl-phenyl]methanone]	670
CN(C)CCN1CCN(C(=O)c2ccc(Nc3nccn4c(-c5ccc(OCC#N)c(F)c5Cl)cnc34)cc2Cl)CC1 [Example 25, 2-[3-chloro-4-[8-[3-chloro-4-[4-[2-(dimethylamino)ethyl]piperazine-1-carbonyl]anilino]imidazo[1,2-a]pyrazin-3-yl]-2-fluoro-phenoxy]acetontrile]	140
COc1ccc(-c2cnc3c(Nc4ccc(C(=O)N5CCC(CN)CC5)c(C)c4)nccn23)c(F)c1F [Example 28, (4-(aminomethyl)piperidin-1-yl)(4-((3-(2,3-difluoro-4-methoxyphenyl)imidazo[1,2-a]pyrazin-8-yl)amino)-2-methylphenyl)methanone]	170
COc1ccc(-c2cnc3c(Nc4ccc(C(=O)N5CCC(CN(C)C)CC5)c(C)c4)nccn23)c(F)c1F [Example 29, (4-((3-(2,3-difluoro-4-methoxyphenyl)imidazo[1,2-a]pyrazin-8-yl)amino)-2-methylphenyl)(4-((dimethylamino)methyl)piperidin-1-yl)methanone]	120
Cc1cc(Nc2nccn3c(-c4ccc(OCC#N)c(F)c4F)cnc23)ccc1C(=O)N1CCC(CN)CC1 [Example 31, 2-[4-[8-[4-[4-(aminomethyl)piperidine-1-carbonyl]-3-methyl-anilino]imidazo[1,2-a]pyrazin-3-yl]-2,3-difluoro-phenoxy]acetonitrile;2,2,2-trifluoroacetic acid]	120
Cc1cc(Nc2nccn3c(-c4cc(F)c(OCC#N)cc4Cl)cnc23)ccc1C(=O)N1CCC(C(=O)N2CCNC(CO)C2)CC1 (centres unmarked) [Example 32, 2-[5-chloro-2-fluoro-4-[8-[4-[4-[3-(hydroxymethyl)piperazine-1-carbonyl]piperidine-1-carbonyl]-3-methyl-anilino]imidazo[1,2-a]pyrazin-3-yl]phenoxy]acetonitrile;2,2,2-trifluoroacetic acid]	210
Cc1cc(Nc2nccn3c(-c4ccc(OC(F)F)cc4)cnc23)ccc1C(=O)N1CCC(C(=O)N2C[C@H](CO)[C@@H](O)[C@H](O)C2)CC1 [Example 33, (1-(4-((3-(4-(difluoromethoxy)phenyl)imidazo[1,2-a]pyrazin-8-yl)amino)-2-methylbenzoyl)piperidin-4-yl)((3R,4R,5R)-3,4-dihydroxy-5-(hydroxymethyl)piperidin-1-yl)methanone]	230

same assay, conditions: Acinetobacter baumannii, ATCC17978, 16 h, read-out: ATCC17978 IC90, 90% growth inhibitory concentration, Acinetobacter baumannii ATCC17978, Iso-Sensitest broth, OD 600 nm over 16 h

SMILES	IC90 [nM]
COc1cc(Cl)c(-c2cnc3c(Nc4ccc(C(=O)N5CCC(CN)CC5)c(C)c4)nccn23)cc1F [Example 26, [4-(aminomethyl)-1-piperidyl]-[4-[[3-(2-chloro-5-fluoro-4-methoxy-phenyl)imidazo[1,2-a]pyrazin-8-yl]amino]-2-methyl-phenyl]methanone hydrochloride]	370
